According to publication PMC5604080, “Genetic and Biochemical Characterization of 2-Chloro-5-Nitrophenol Degradation in a Newly Isolated Bacterium, Cupriavidus sp. Strain CNP-8” (Frontiers in Microbiology, 2017):

Key:
[1] = target: T1, MnpC (H6-MnpC) (Cupriavidus sp. CNP-8, UniProt A0A291LMA7); assay: spectrophotometric turnover, product with λmax […] nm; format: biochemical; conditions: structure analog used in place of unstable aminohydroquinone
T1 construct: full-length, pET-28a NdeI-XhoI, His6-tagged (H6-MnpC), E. coli Rosetta(DE3)pLysS, Ni-NTA purified, about 35 kDa, single-subunit dioxygenase
T1 sequence (A0A291LMA7 1-316): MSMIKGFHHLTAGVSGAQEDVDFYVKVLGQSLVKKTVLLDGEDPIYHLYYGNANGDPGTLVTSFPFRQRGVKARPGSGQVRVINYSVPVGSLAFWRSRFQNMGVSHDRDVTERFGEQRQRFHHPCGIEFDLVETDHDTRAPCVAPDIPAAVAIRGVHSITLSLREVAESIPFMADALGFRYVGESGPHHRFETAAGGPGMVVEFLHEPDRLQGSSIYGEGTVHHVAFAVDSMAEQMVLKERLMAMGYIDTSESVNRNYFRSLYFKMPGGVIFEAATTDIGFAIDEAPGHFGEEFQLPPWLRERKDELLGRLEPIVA

[2] = test system: O=[N+]([O-])c1cccc(O)c1; assay: purified protein; format: biochemical, Cupriavidus sp. CNP-8; conditions: 0.2 mM NADPH, 50 mM phosphate pH 7.5
[3] = test system: O=[N+]([O-])c1ccc(Cl)c(O)c1; assay: purified protein; format: biochemical, Cupriavidus sp. CNP-8; conditions: 0.2 mM NADPH, 50 mM phosphate pH 7.5

Oc1ccc(O)c(Cl)c1 [chlorohydroquinone]
spectrophotometric turnover, product with λmax 320 nm [1]: H6-MnpC catalyzed rapid degradation of both CHQ and HQ

Oc1ccc(O)cc1 [hydroquinone]
spectrophotometric turnover, product with λmax 320 nm [1]: H6-MnpC catalyzed rapid degradation of both CHQ and HQ

MnpA (H6-MnpA) (Cupriavidus sp. CNP-8)
Km [2]: 3.4 ± 1.63 µM | Km [3]: 16.3 ± 2.87 µM
